Experimental data reported in patent publication US20220289903A1, “POLYMER AND COMPOSITION FROM RENEWABLE SOURCE” (ÅBO AKADEMI UNIVERSITY, priority 2019, published 2022).

Legend:
[1] = test system: Murine breast cancer (4T1) cells; test: In vivo study in tumor-bearing mice; conditions: equivalent doxorubicin dose 7.5 mg/kg i.v. on alternate day, 4T1 tumor Balb/c mice
Protocol: All animal experiments were done with the approval of Institutional Animal Ethical Committee (IAEC), National Institute of Immunology, New Delhi. Murine breast cancer (4T1) cells ([…]) in 200 μL of FBS were injected subcutaneously into the right flanks of 5-week-old female Balb/c mice. Mice were randomized into four groups (6 mice in each group) after they developed a tumor of ˜75 mm^3. […] Tumor measurements were made every alternate day using a digital caliper, and tumor volume was calculated using the formula L×B2/2 where L and B are the length and breadth of the tumor. Each mouse was weighed before dosing and weight loss with respect to dosing. The survival study was continued until the last mouse was found live in all the groups. […] FIG. 9B represents an example of the weight change (%) of Balb/c mice vs injection day when treated as above.

[2] = test system: MDAMB-231 cells; test: WST-1 cell viability assay, cancer cells; conditions: 25-150 μg/mL DOX, 24 hours and 72 hours

For `COc1cccc2c1C(=O)c1c(O)c3c(c(O)c1C2=O)C[C@@](O)(C(=O)CO)C[C@@H]3O[C@H]1C[C@H](N)[C@H](O)[C@H](C)O1.Cl` [DOX, doxorubicin HCl], the “number of doses after which all animals of the group died” value [1] was 4 doses and the “percentage proliferation (cytotoxicity)” value [2] was “equally cytotoxic regardless the cell line used”.
